Data published in article PMC4676410 (Journal of medicinal chemistry, 2015).
“And” between values parts separate entries of the source, which are not always exact repeats. Equal entries are not always repeated. Where two headings read alike, the source gives them in different places.

Assays:
[1] = system: HIV-1 Env pseudoviruses; assay type: cell-based
[2] = system: MT-2 cells; experiment: Cytotoxicity in MT-2 cells; assay type: cell-based
[3] = system: laboratory-adapted HIV-1 strains; experiment: microbe, parasite or virus in culture; assay type: cell-based
[4] = system: A-MLV; experiment: microbe, parasite or virus in culture; assay type: cell-based; conditions: control, A-MLV envelope pseudovirus
[5] = system: HIV-1IIIB; experiment: CD4-dependent CXCR4-tropic HIV-1 cell-cell transmission assay; assay type: cell-based; conditions: read-out: IC50, CXCR4-tropic HIV-1 cell-cell transmission; Ghost X4/R5 and H9/HIV-1IIIB, p24
[6] = target: HIV-1 integrase (Human immunodeficiency virus type 1 group M subtype B, UniProt P04585); experiment: HIV-1 integrase assay; assay type: biochemical; conditions: read-out: IC50, HIV-1 integrase assay
[7] = system: HIV-1ADA; experiment: CD4-dependent CCR5-tropic HIV-1 cell-cell transmission assay; assay type: cell-based; conditions: read-out: IC50, CCR5-tropic HIV-1 cell-cell transmission; Ghost X4/R5 and MOLT-4/HIV-1ADA, p24
[8] = system: U87-CD4-CCR5 cells; experiment: Cytotoxicity in U87-CD4-CCR5 cells; assay type: cell-based
[9] = system: PBMC; experiment: Cytotoxicity in PBMCs; assay type: cell-based, human
[10] = target: HIV-1 reverse transcriptase (RT) (Human immunodeficiency virus type 1 group M subtype B, UniProt P12497); experiment: HIV-1 reverse transcriptase; conditions: read-out: IC50, HIV-1 reverse transcriptase (RT) assay
[11] = system: TZM-bl cells; experiment: Cytotoxicity in TZM-bl cells; assay type: cell-based
[12] = system: lab-adapted and primary HIV-1 isolates; experiment: microbe, parasite or virus in culture; assay type: cell-based; conditions: PBMC
[13] = system: U87-CD4-CXCR4 cells; experiment: Cytotoxicity in U87-CD4-CXCR4 cells; assay type: cell-based
[14] = system: fusion between MAGI-CCR5 and HL 2/3 cells; experiment: HIV-1 cell-cell fusion assay; assay type: cell-based; conditions: read-out: IC50, cell-cell fusion assay; MAGI-CCR5 and HL 2/3 cells
[15] = system: HIV-1 Env pseudoviruses; conditions: data previously published ref 19, cited from earlier work
[16] = system: HIV-1HXB2 (CXCR4-tropic) pseudovirus; experiment: Single-cycle infection assay in U87-CD4-CXCR4 cells; conditions: U87-CD4-CXCR4, HIV-1HXB2
[17] = system: VSV-G; experiment: microbe, parasite or virus in culture; assay type: cell-based; conditions: control, VSV-G envelope pseudovirus
[18] = system: HIV-1ADA (CCR5-tropic) pseudovirus; experiment: Single-cycle infection assay in U87-CD4-CCR5 cells; conditions: U87-CD4-CCR5, HIV-1ADA
[19] = system: YU2 core gp120; experiment: SPR: binding of YU2 core gp120 to captured mAb 17b in presence of compounds; design: species or system HIV-1; conditions: sCD4 15-fold excess, compounds 50-fold excess

## CC1(C)CC(NC(=O)C(=O)Nc2ccc(Cl)cc2)CC(C)(C)N1 [NBD-556]
[1]
  IC50: 11.5 µM and 9.4 µM
[1]; TZM-bl, HIV-1HXB2
  IC50: 6.9 ± 0.9 µM
[1]; panel of 56 HIV-1 Env pseudoviruses
  share of viruses showing sensitivity at ≤3 μM: 7%
[1]; subtype A2/D, NIH #11906, QG393.60M.ENV.B7
  IC50: 3.5 ± 0.2 µM
[1]; subtype A2/D, NIH #11907, QG393.60M.ENV.B8
  IC50: 3.6 ± 0.1 µM
[1]; subtype A, KNH1144
  IC50: 20 ± 3.2 µM
[1]; subtype A, NIH #11888, QB726.70M.ENV.C4
  IC50: 20.2 ± 6 µM
[1]; subtype A, NIH #11889, QB726.70M.ENV.B3
  IC50: 11.3 ± 2.5 µM
[1]; subtype A, NIH #11890, QF495.23M.ENV.A1
  IC50: 13.6 ± 2.3 µM
[1]; subtype A, NIH #11891, QF495.23M.ENV.A3
  IC50: 27.8 ± 9.3 µM
[1]; subtype A, NIH #11892, QF495.23M.ENV.B2
  IC50: 20.4 ± 7 µM
[1]; subtype A/E, AA058
  IC50: 4.1 ± 0.8 µM
[1]; subtype A/E, CM244
  IC50: 5.6 ± 0.8 µM
[1]; subtype A/E, NIH #11603 (potential), CRF01_AE clone 269
  IC50: 10.7 ± 1.5 µM
[1]; subtype A/G, NIH #11601, CRF02_AG clone 263
  IC50: 7 ± 2.2 µM
[1]; subtype A/G, NIH #11602, CRF02_AG clone 266
  IC50: 4.6 ± 1.6 µM
[1]; subtype A/G, NIH #11605, CRF02_AG clone 278
  IC50: 6.5 ± 1.1 µM
[1]; subtype B, B41
  IC50: 4.5 ± 2 µM
[1]; subtype B, NIH #11018, QH0692, clone 42
  IC50: 2 ± 0.6 µM
[1]; subtype B, NIH #11022, PVO, clone 4
  IC50: 3.5 ± 0.7 µM
[1]; subtype B, NIH #11023, TRO, clone 11
  IC50: 4.1 ± 0.6 µM
[1]; subtype B, NIH #11033, pWIT04160 clone 33
  IC50: 4.8 ± 0.8 µM
[1]; subtype B, NIH #11035, PREJ04541 clone 67
  IC50: 3.4 ± 0.2 µM
[1]; subtype B, NIH #11036, pRHPA4259 clone 7
  IC50: 4.3 ± 0.5 µM
[1]; subtype B, NIH #11037, PTHR04156 clone 18
  IC50: 8.4 ± 2.4 µM
[1]; subtype B, NIH #11563, p1058_11.B11.1550, R5X4-tropic
  IC50: 1.9 ± 1 µM
[1]; subtype C, NIH #11306, Du156, clone 12
  IC50: 5 ± 0.9 µM
[1]; subtype C, NIH #11307, Du172, clone 17
  IC50: 4.8 ± 0.2 µM
[1]; subtype C, NIH #11308, Du422, clone 1
  IC50: 6.1 ± 0.5 µM
[1]; subtype C, NIH #11309, ZM197M.PB7
  IC50: 3.8 ± 0.3 µM
[1]; subtype C, NIH #11310, ZM214M.PL15
  IC50: 4.1 ± 0.7 µM
[1]; subtype C, NIH #11311, ZM233M.PB6
  IC50: 6.6 ± 0.8 µM
[1]; subtype C, NIH #11312, ZM249M.PL1
  IC50: 6.1 ± 0.3 µM
[1]; subtype C, NIH #11313, ZM53M.PB12
  IC50: 14.6 ± 1 µM
[1]; subtype C, NIH #11314, ZM109F.PB4
  IC50: 6.2 ± 0.3 µM
[1]; subtype C, NIH #11315, ZM135M.PL10a
  IC50: 2.2 ± 0.6 µM
[1]; subtype C, NIH #11316, CAP45.2.00.G3
  IC50: 9.6 ± 0.3 µM
[1]; subtype C, NIH #11317, CAP210.2.00.E8
  IC50: 5.3 ± 0.6 µM
[1]; subtype C, NIH #11908, QB099.391 M.ENV.B1
  IC50: 5.7 ± 0.9 µM
[1]; subtype C, NIH #11909, QB099.391 M.ENV.C8
  IC50: 3.6 ± 0.9 µM
[1]; subtype C, NIH #11910, QC406.70M.ENV.F3
  IC50: 3.6 ± 0.9 µM
[1]; subtype D, NIH #11911, QA013.70I.ENV.H1
  IC50: 9.4 ± 2.6 µM
[1]; subtype D, NIH #11912, QA013.70I.ENV.M12
  IC50: 5.4 ± 0.3 µM
[1]; subtype D, NIH #11914, QA465.59M.ENV.D1
  IC50: 6.1 ± 0.5 µM
[1]; subtype D, NIH #11916, QD435.100M.ENV.B5
  IC50: 4.4 ± 1 µM
[1]; subtype D, NIH #11918, QD435.100M.ENV.E1
  IC50: 6.2 ± 1.7 µM
[2]
  CC50: > 280 µM
[3]; RT inhibitor-resistant isolate AZT-R, subtype B, MT-2, X4
  IC50: 58 ± 14.3 µM
[3]; fusion inhibitor-resistant isolate pNL4-3 gp41(36G)V38E,N42S, subtype B, MT-2, X4
  IC50: 11 ± 0.9 µM
[3]; laboratory strain MN, subtype B, MT-2, X4
  IC50: 15.9 ± 1.6 µM
[3]; laboratory strain RF, subtype B, MT-2, R5X4
  IC50: 18.7 ± 1.3 µM
[3]; laboratory strain SF2, subtype B, MT-2, R5X4
  IC50: ≥ 118 µM
[3]; protease inhibitor-resistant isolate HIV-1RF/L-323-12-3, subtype B, MT-2, X4
  IC50: < 59 µM
[4]
  IC50: > 60 µM
[5]
  IC50: ~60 µM
[6]
  IC50: > 200 µM
[7]
  IC50: ~60 µM
[8]
  CC50: ~60 µM
[9]
  CC50: > 280 µM
[10]
  IC50: > 200 µM
[11]
  CC50: ~60 µM
[12]; laboratory strain 89.6, subtype B, R5X4
  IC50: 4.8 ± 1 µM
[12]; laboratory strain BaL, subtype B, R5
  IC50: ≥ 118 µM
[12]; laboratory strain SF162, subtype B, R5
  IC50: 48.9 ± 7.3 µM
[12]; primary isolate 92US657, subtype B, R5
  IC50: 48 ± 1.65 µM
[12]; primary isolate 93MW959, subtype C, R5
  IC50: 57.2 ± 8.7 µM
[12]; primary isolate 93TH060, subtype E, R5
  IC50: > 45 µM
[12]; primary isolate RU570, subtype G, R5
  IC50: 19.5 ± 2.3 µM
[13]
  CC50: ~60 µM
[14]
  IC50: 6.5 µM
[15]; subtype A, NIH #11887, Q259env.w6
  IC50: 6.9 ± 0.9 µM
[15]; subtype A/D, NIH #11901, QA790.204I.ENV.A4
  IC50: 12.3 ± 1.8 µM
[15]; subtype A/D, NIH #11903, QA790.204I.ENV.C8
  IC50: 5 ± 1 µM
[15]; subtype A/D, NIH #11904, QA790.204I.ENV.E2
  IC50: 7.1 ± 0.5 µM
[15]; subtype B, NIH #11024, AC10.0, clone 29
  IC50: 8.9 ± 3 µM
[15]; subtype B, NIH #11038, pCAAN5342 clone A2
  IC50: 2.4 ± 0.3 µM
[15]; subtype B, NIH #11058, SC422661.8
  IC50: 4.8 ± 0.4 µM
[15]; subtype B, NIH #11578, pWEAUd15.410.5017, R5X4-tropic
  IC50: 4.9 ± 0.8 µM
[15]; subtype D, NIH #11913, QA465.59M.ENV.A1
  IC50: 4.8 ± 0.2 µM
[16]
  IC50: 9.5 ± 0.6 µM
[17]
  IC50: > 60 µM
[18]
  IC50: 7.4 ± 0.8 µM
[19]
  enhancement of mAb 17b binding to YU2 core gp120 (in words): highest enhancement
